Measurements reported in patent US20110105474A1, “HETEROCYCLIC DERIVATIVES AS HDAC INHIBITORS” (DAC S.r.l., priority 2008, published 2011).
Counter-ions that a name gives are not always drawn.

Key:
Format in all cases: cell-based
[1] = tested on: K562 cells; assay: Cell growth, CellTiter-Glo Luminescent Cell Viability Assay, K562; conditions: Homo sapiens, 72 h incubation
Text: (§1) CellTiter-Glo® Luminescent Cell Viability Assay (Promega) is a homogeneous method of determining the number of viable cells in culture based on quantitation of the present ATP, which indicates the presence of metabolically active cells. The homogeneous assay procedure involves addition of a single reagent (CellTiter-Glo®Reagent) directly to the cells, which leads to cell lysis and generation of a luminescent signal proportional to the amount of the ATP and the number of cells present in culture. The assay relies on the properties of a proprietary thermostable luciferase (Ultra-Glo® recombinant luciferase), which generates a luminescent signal.
(§2) K562, A549 and HCT-116 cells, in exponential growth, were incubated for 72 h with different concentrations of the inhibitors. After 72 h, a volume of CellTiter-Glo® Reagent equal to the volume of cell culture medium was added. The content was mixed for 2 min to induce cell lysis. The luminescence was recorded after further 10 min at RT in order to obtain a stabilized luminescent signal.
(§3) The IC50 was calculated using GraphPad Software.
(§4) IC50 results were allocated to one of 3 ranges as follows: Range A: IC50≦1.0 μM; Range B: from 1.0 to 3.0 μM; Range C: IC50≧3.0 μM.

[2] = tested on: A549 cells; assay: Cell growth, CellTiter-Glo Luminescent Cell Viability Assay, A549; conditions: Homo sapiens, 72 h incubation
Text: as §1, §2, §3, §4

[3] = tested on: HCT-116 cells; assay: Cell growth, CellTiter-Glo Luminescent Cell Viability Assay, HCT-116; conditions: Homo sapiens, 72 h incubation, read-out: IC50 HCT116
Text: as §1, §2, §3, §4

Structure (SMILES)	IC50 [1] [nM]	IC50 [2] [nM]	IC50 [3] [nM]
O=C(/C=C/c1cccc(/C=C/C(=O)N2CCN(c3ccncc3)CC2)n1)NO [Example 40, (E)-N-Hydroxy-3-{6-[(E)-3-oxo-3-(4-pyridin-4-yl-piperazin-1-yl)-propenyl]-pyridin-2-yl}-acrylamide hydrochloride]	≥ 3000	≥ 3000	≥ 3000
O=C(/C=C/c1cccc(/C=C/C(=O)N2C[C@@H]3C[C@H]2CN3c2ccc(Cl)cc2)n1)NO [Example 41, (E)-3-(6-{(E)-3-[5-(4-Chloro-phenyl)-(1S,4S)-2,5-diaza-bicyclo[2.2.1]hept-2-yl]-3-oxo-propenyl}-pyridin-2-yl)-N-hydroxy-acrylamide trifluoroacetate]	1000 to 3000	≥ 3000	1000 to 3000
O=C(/C=C/c1cccc(/C=C/C(=O)N2CCc3[nH]c4ccccc4c3C2)n1)NO [Example 45, (E)-N-Hydroxy-3-{6-[(E)-3-oxo-3-(1,3,4,5-tetrahydro-pyrido[4,3-b]indol-2-yl)-propenyl]-pyridin-2-yl}-acrylamide hydrochloride]	1000 to 3000	≥ 3000	1000 to 3000
CC(C)c1ccc(N2CCN(C(=O)/C=C/c3cccc(/C=C/C(=O)NO)n3)CC2)cc1 [Example 49, (E)-N-Hydroxy-3-(6-{(E)-3-[4-(4-isopropyl-phenyl)-piperazin-1-yl]-3-oxo-propenyl}-pyridin-2-yl)-acrylamide hydrochloride]	1000 to 3000	1000 to 3000	≤ 1000
CC(C)(C)c1ccc(N2CCN(C(=O)/C=C/c3cccc(/C=C/C(=O)NO)n3)CC2)cc1 [Example 50, (E)-3-(6-{(E)-3-[4-(4-tert-Butyl-phenyl)-piperazin-1-yl]-3-oxo-propenyl}-pyridin-2-yl)-N-hydroxy-acrylamide hydrochloride]	1000 to 3000	≥ 3000	1000 to 3000
CS(=O)(=O)c1ccc(N2CCN(C(=O)/C=C/c3cccc(/C=C/C(=O)NO)n3)CC2)cc1 [Example 51, (E)-N-Hydroxy-3-(6-{(E)-3-[4-(4-methanesulfonyl-phenyl)-piperazin-1-yl]-3-oxo-propenyl}-pyridin-2-yl)-acrylamide hydrochloride]	≥ 3000	≥ 3000	≥ 3000
O=C(/C=C/c1cccc(/C=C/C(=O)N2CCCc3ccccc32)n1)NO [Example 55, (E)-3-{6-[(E)-3-(3,4-Dihydro-2H-quinolin-1-yl)-3-oxo-propenyl]-pyridin-2-yl}-N-hydroxy-acrylamide trifluoroacetate]	≤ 1000	≤ 1000	≤ 1000
O=C(/C=C/c1cccc(/C=C/C(=O)N2CCc3c([nH]c4ccccc34)C2)n1)NO [Example 56, (E)-N-Hydroxy-3-{6-[(E)-3-oxo-3-(1,3,4,9-tetrahydro-beta-carbolin-2-yl)-propenyl]-pyridin-2-yl}-acrylamide hydrochloride]	1000 to 3000	≥ 3000	1000 to 3000
O=C(/C=C/c1cccc(/C=C/C(=O)N2CCC(c3nc4ccccc4o3)CC2)n1)NO [Example 57, (E)-3-{6-[(E)-3-(4-Benzooxazol-2-yl-piperidin-1-yl)-3-oxo-propenyl]-pyridin-2-yl}-N-hydroxy-acrylamide hydrochloride]	≥ 3000	≥ 3000	1000 to 3000
O=C(/C=C/c1cccc(/C=C/C(=O)N2CCc3ccccc3C2)n1)NO [Example 58, (E)-3-{6-[(E)-3-(3,4-Dihydro-1H-isoquinolin-2-yl)-3-oxo-propenyl]-pyridin-2-yl}-N-hydroxy-acrylamide hydrochloride]	≤ 1000	1000 to 3000	≤ 1000
O=C(/C=C/c1cccc(/C=C/C(=O)N2CCC(c3nc4ccccc4[nH]3)CC2)n1)NO [Example 59, (E)-3-(6-{(E)-3-[4-(1H-Benzoimidazol-2-yl)-piperidin-1-yl]-3-oxo-propenyl}-pyridin-2-yl)-N-hydroxy-acrylamide hydrochloride]	≥ 3000	≥ 3000	≥ 3000
O=C(/C=C/c1cccc(/C=C/C(=O)N2CCC3(C=Cc4ccccc43)CC2)n1)NO [Example 60, (E)-3-(6-{(E)-3-[Spiro[indene-1,4′-piperidine-1′-yl]-3-oxo-propenyl}-pyridin-2-yl)-N-hydroxy-acrylamide hydrochloride]	≤ 1000	≥ 3000	1000 to 3000
O=C(/C=C/c1cccc(/C=C/C(=O)N2CCC3(CC2)OCc2ccccc23)n1)NO [Example 61, (E)-3-(6-{(E)-3-[Spiro[2-benzofuran-1,4′-piperidine-1′-yl]-3-oxo-propenyl}-pyridin-2-yl)-N-hydroxy-acrylamide hydrochloride]	≤ 1000	1000 to 3000	≤ 1000
O=C(/C=C/c1cccc(/C=C/C(=O)N2CCC(n3c(-c4ccccc4)nc4ccccc43)CC2)n1)NO [Example 62, (E)-N-Hydroxy-3-(6-{(E)-3-oxo-3-[4-(2-phenyl-benzoimidazol-1-yl)-piperidin-1-yl]-propenyl}-pyridin-2-yl)-acrylamide hydrochloride]	≥ 3000	≥ 3000	≥ 3000
O=C(/C=C/c1cccc(/C=C/C(=O)N2CCC[C@@H](c3ccccc3)C2)n1)NO [Example 73, (E)-N-Hydroxy-3-{6-[(E)-3-oxo-3-((S)-3-phenyl-piperidin-1-yl)-propenyl]-pyridin-2-yl}-acrylamide hydrochloride]	≤ 1000	≤ 1000	≤ 1000
O=C(/C=C/c1cccc(/C=C/C(=O)N2CCCC(c3ccccc3)C2)n1)NO (stereo not drawn) [Example 74, (E)-N-Hydroxy-3-{6-[(E)-3-oxo-3-((12)-3-phenyl-piperidin-1-yl)-propenyl]-pyridin-2-yl}-acrylamide hydrochloride]	≤ 1000	≤ 1000	≤ 1000
O=C(/C=C/c1cccc(/C=C/C(=O)N2CC=C(c3ccccc3)CC2)c1)NO [Example 75, (E)-N-Hydroxy-3-{3-[(E)-3-oxo-3-(4-phenyl-3,6-dihydro-2H-pyridin-1-yl)-propenyl]-phenyl}-acrylamide]	1000 to 3000	1000 to 3000	≤ 1000
O=C(/C=C/c1cccc(/C=C/C(=O)N2CCN(c3ccc(Cl)cc3)CC2)c1)NO [Example 76, (E)-3-(3-{(E)-3-[4-(4-Chloro-phenyl)-piperazin-1-yl]-3-oxo-propenyl}-phenyl)-N-hydroxy-acrylamide hydrochloride]	≤ 1000	≤ 1000	≤ 1000
O=C(/C=C/c1cccc(/C=C/C(=O)N2CCC(C(=O)c3ccccc3)CC2)c1)NO [Example 77, (E)-3-{3-[(E)-3-(4-Benzoyl-piperidin-1-yl)-3-oxo-propenyl]phenyl}-N-hydroxy-acrylamide]	1000 to 3000	≥ 3000	1000 to 3000
O=C(/C=C/c1cccc(/C=C/C(=O)N2CCC[C@H](c3ccccc3)C2)c1)NO [Example 81, (E)-N-Hydroxy-3-{3-[(E)-3-oxo-3-((R)-3-phenyl-piperidin-1-yl)-propenyl]-phenyl}acrylamide]	≥ 3000	≥ 3000	≥ 3000
O=C(/C=C/c1cccc(/C=C/C(=O)N2CCC[C@@H](c3ccccc3)C2)c1)NO [Example 82, (E)-N-Hydroxy-3-{3-[(E)-3-oxo-3-((S)-3-phenyl-piperidin-1-yl)-propenyl]-phenyl}-acrylamide]	≥ 3000	≥ 3000	≥ 3000
O=C(/C=C/c1cccc(/C=C/C(=O)N2CCN(c3cccc(Cl)c3)CC2)c1)NO [Example 85, (E)-3-(3-{(E)-3-[4-(3-Chloro-phenyl)-piperazin-1-yl]-3-oxo-propenyl}-phenyl)-N-hydroxy-acrylamide hydrochloride]	1000 to 3000	≥ 3000	1000 to 3000
O=C(/C=C/c1cccc(/C=C/C(=O)N2CCC(Cc3ccccc3)CC2)c1)NO [Example 86, (E)-3-{3-[(E)-3-(4-Benzyl-piperidin-1-yl)-3-oxo-propenyl]-phenyl}-N-hydroxy-acrylamide]	≥ 3000	≥ 3000	≥ 3000
O=C(/C=C/c1cccc(/C=C/C(=O)N2CCN(c3ccccc3Cl)CC2)c1)NO [Example 87, (E)-3-(3-{(E)-3-[4-(2-Chloro-phenyl)-piperazin-1-yl]-3-oxo-propenyl}-phenyl)-N-hydroxy-acrylamide hydrochloride]	1000 to 3000	≥ 3000	1000 to 3000
N#Cc1ccc(N2CCN(C(=O)/C=C/c3cccc(/C=C/C(=O)NO)c3)CC2)cc1 [Example 88, (E)-3-(3-{(E)-3-[4-(4-Cyano-phenyl)-piperazin-1-yl]-3-oxo-propenyl}-phenyl)-N-hydroxy-acrylamide hydrochloride]	≤ 1000	1000 to 3000	≤ 1000
O=C(/C=C/c1cccc(/C=C/C(=O)N2CCC=C(c3ccccc3)C2)c1)NO [Example 89, (E)-N-Hydroxy-3-{3-[(E)-3-oxo-3-(5-phenyl-3,6-dihydro-2H-pyridin-1-yl)-propenyl]-phenyl}-acrylamide]	≥ 3000	≥ 3000	≥ 3000
O=C(/C=C/c1cccc(/C=C/C(=O)N2CCNC(c3ccccc3)C2)c1)NO (stereo not drawn) [Example 90, (E)-N-Hydroxy-3-{3-[(E)-3-oxo-3-(3-phenyl-piperazin-1-yl)-propenyl]phenyl}-acrylamide hydrochloride]	1000 to 3000	≥ 3000	1000 to 3000
